Data published in publication PMC10733463, “Berberine-microbiota interplay: orchestrating gut health through modulation of the gut microbiota and metabolic transformation into bioactive metabolites” (Frontiers in Pharmacology, 2023).

Tests used:
Type in all cases: in vivo, Ross 308 broiler chickens
[1] = Bodyweight of broilers fed berberine-supplemented diet; settings: 21 days post-hatch, n = 12
Text: (§1) The study was undertaken following the guidelines of the ethics committee of the Faculty of Veterinary Medicine and Bioscience Engineering, Ghent University, in accordance with the EU Directive 2010/63/EU. […] They were allotted into 4 groups, with three replicate pens per group each housing 8 chickens. The animals were not vaccinated. Water and commercial starter feed (day 1-12, FARM 1 Mash, Country's Best, […], Belgium) or grower (day 13-21, FARM 2 mash, Country's Best, […], Belgium) were provided ad libitum. […] At day 21, 4 birds per pen were weighted then euthanized by sodium pentobarbital injection for sampling. […] Additionally, ileal and caecal content samples were collected and stored at -20°C for berberine and berberine-derived metabolite quantification.

caecal microbiota = test: 16S rRNA gene sequencing, microbiota composition in the caecum
jejunal microbiota = test: 16S rRNA gene sequencing, microbiota composition in the jejunum
duodenum = test: Intestinal morphology (villus length, crypt depth) in the duodenum; settings: 21 days
Text: as §1, with “quantification. […] 24 h formalin-fixed duodenal intestinal tissue segments were embedded in paraffin wax and sectioned at 5 μm, followed by haematoxylin and eosin staining. Villus length and crypt depth were assessed using a PC-based image analysis system (Leica Application Suite V4, LAS V4.; Leica, Diegem Belgium).” for “quantification.”

[2] = 0.1 g berberine/kg feed vs normal diet, 21 days, LinDA-normalized abundance
[3] = 0.1 g berberine/kg feed, 21 days
[4] = 0.5 g berberine/kg feed vs normal diet, 21 days, LinDA-normalized abundance
[5] = 0.5 g berberine/kg feed, 21 days
[6] = 1 g berberine/kg feed vs normal diet, 21 days, LinDA-normalized abundance

In the case of `COc1ccc2cc3[n+](cc2c1OC)CCc1cc2c(cc1-3)OCO2` [Berberine, Berberine chloride], the Bodyweight ([1]; 0.1 g berberine/kg feed) was 655 ± 76 g, the Bodyweight ([1]; 0.5 g berberine/kg feed) was 703 ± 115 g and the Bodyweight ([1]; 1 g berberine/kg feed) was 671 ± 55 g. For the same molecule, the “L2 FC ASF356, 0.1 vs 0” value (caecal microbiota; [2]) was 3.88, the “L2 FC CHKCI001, 0.1 vs 0” value (caecal microbiota; [2]) was 1.33 and the “L2 FC Family_ Lachnospiraceae, 0.1 vs 0” value (caecal microbiota; [2]) was -0.10. For the same molecule, the “L2 FC Fusicatenibacter, 0.1 vs 0” value (caecal microbiota; [2]) was 1.41, the “L2 FC uncultured genus of Peptostreptococcaceae, 0.1 vs 0” value (caecal microbiota; [2]) was 0.26 and the “Mean relative abundance (%) ASF356” value (caecal microbiota; [3]) was 0.40%. The “Mean relative abundance (%) CHKCI001” value (caecal microbiota; [3]) was 0.02%, the “Mean relative abundance (%) Family_ Lachnospiraceae” value (caecal microbiota; [3]) was 2.08% and the “Mean relative abundance (%) Fusicatenibacter” value (caecal microbiota; [3]) was 0.06%. The “Mean relative abundance (%) uncultured genus of Peptostreptococcaceae” value (caecal microbiota; [3]) was 0.63%, the “Mean relative abundance of Peptostreptococcaceae” value (caecal microbiota; [3]) was 0.66% and the “L2FC of LinDA-normalized abundance of Peptostreptococcaceae” value (caecal microbiota; 0.1 vs 0 g berberine/kg feed) was 0.02. For the same molecule, the “L2 FC ASF356, 0.5 vs 0” value (caecal microbiota; [4]) was 4.47, the “L2 FC CHKCI001, 0.5 vs 0” value (caecal microbiota; [4]) was 2.34 and the “L2 FC Family_ Lachnospiraceae, 0.5 vs 0” value (caecal microbiota; [4]) was 1.25. For the same molecule, the “L2 FC Fusicatenibacter, 0.5 vs 0” value (caecal microbiota; [4]) was 3.47, the “L2 FC uncultured genus of Peptostreptococcaceae, 0.5 vs 0” value (caecal microbiota; [4]) was -0.52 and the “Mean relative abundance (%) ASF356” value (caecal microbiota; [5]) was 0.38%. The “Mean relative abundance (%) CHKCI001” value (caecal microbiota; [5]) was 0.03%, the “Mean relative abundance (%) Family_ Lachnospiraceae” value (caecal microbiota; [5]) was 5.61% and the “Mean relative abundance (%) Fusicatenibacter” value (caecal microbiota; [5]) was 0.32%. The “Mean relative abundance (%) uncultured genus of Peptostreptococcaceae” value (caecal microbiota; [5]) was 0.54%, the “Mean relative abundance of Peptostreptococcaceae” value (caecal microbiota; [5]) was 0.56% and the “L2FC of LinDA-normalized abundance of Peptostreptococcaceae” value (caecal microbiota; 0.5 vs 0 g berberine/kg feed) was -0.55. For the same molecule, the “L2 FC ASF356, 1 vs 0” value (caecal microbiota; [6]) was 3.78, the “L2 FC CHKCI001, 1 vs 0” value (caecal microbiota; [6]) was 1.13 and the “L2 FC Family_ Lachnospiraceae, 1 vs 0” value (caecal microbiota; [6]) was 0.72. For the same molecule, the “L2 FC Fusicatenibacter, 1 vs 0” value (caecal microbiota; [6]) was 2.41, the “L2 FC uncultured genus of Peptostreptococcaceae, 1 vs 0” value (caecal microbiota; [6]) was -8.12 and the “Mean relative abundance (%) ASF356” value (caecal microbiota; 1 g berberine/kg feed, 21 days) was 0.32%. The “Mean relative abundance (%) CHKCI001” value (caecal microbiota; 1 g berberine/kg feed, 21 days) was 0.02%, the “Mean relative abundance (%) Family_ Lachnospiraceae” value (caecal microbiota; 1 g berberine/kg feed, 21 days) was 5.61% and the “Mean relative abundance (%) Fusicatenibacter” value (caecal microbiota; 1 g berberine/kg feed, 21 days) was 0.12%. The “Mean relative abundance (%) uncultured genus of Peptostreptococcaceae” value (caecal microbiota; 1 g berberine/kg feed, 21 days) was 0.00%, the “Mean relative abundance of Peptostreptococcaceae” value (caecal microbiota; 1 g berberine/kg feed, 21 days) was 0.00% and the “L2FC of LinDA-normalized abundance of Peptostreptococcaceae” value (caecal microbiota; 1 vs 0 g berberine/kg feed) was -7.85. The “Observed number of OTUs” value (caecal microbiota; lowest concentration (0.1 g/kg feed), p = 0.041) was “significantly increased”, the “Bacterial richness (Observed number of OTUs)” value (caecal microbiota; middle concentration (0.5 g/kg feed), p = 0.087) was “tended to increase” and the “L2 FC Butyricicoccus, 0.1 vs 0” value (jejunal microbiota; [2]) was -2.02. For the same molecule, the “L2 FC Curtobacterium, 0.1 vs 0” value (jejunal microbiota; [2]) was -2.73, the “L2 FC Gordonibacter, 0.1 vs 0” value (jejunal microbiota; [2]) was -2.71 and the “Mean relative abundance (%) Butyricicoccus” value (jejunal microbiota; [3]) was 0.22%. For the same molecule, the “Mean relative abundance (%) Curtobacterium” value (jejunal microbiota; [3]) was 0.01%, the “Mean relative abundance (%) Gordonibacter” value (jejunal microbiota; [3]) was 0.01% and the “Mean relative abundance of Bacillaceae” value (jejunal microbiota; [3]) was 0.03%. For the same molecule, the “Mean relative abundance of Burkholderiaceae” value (jejunal microbiota; [3]) was 6.47%, the “Mean relative abundance of Peptostreptococcaceae” value (jejunal microbiota; [3]) was 6.37% and the “Mean relative abundance of Pseudomonadaceae” value (jejunal microbiota; [3]) was 1.71%. For the same molecule, the “Mean relative abundance of Ruminococcaceae” value (jejunal microbiota; [3]) was 3.73%, the “Mean relative abundance of uncultured bacterium family (Tenericutes, Mollicutes RF39)” value (jejunal microbiota; [3]) was 0.01% and the “L2FC of LinDA-normalized abundance of Bacillaceae” value (jejunal microbiota; 0.1 vs 0 g berberine/kg feed) was 3.45. The “L2FC of LinDA-normalized abundance of Burkholderiaceae” value (jejunal microbiota; 0.1 vs 0 g berberine/kg feed) was 3.82, the “L2FC of LinDA-normalized abundance of Peptostreptococcaceae” value (jejunal microbiota; 0.1 vs 0 g berberine/kg feed) was 3.90 and the “L2FC of LinDA-normalized abundance of Pseudomonadaceae” value (jejunal microbiota; 0.1 vs 0 g berberine/kg feed) was 3.67. The “L2FC of LinDA-normalized abundance of Ruminococcaceae” value (jejunal microbiota; 0.1 vs 0 g berberine/kg feed) was 2.19, the “L2FC of LinDA-normalized abundance of uncultured bacterium family (Tenericutes, Mollicutes RF39)” value (jejunal microbiota; 0.1 vs 0 g berberine/kg feed) was 2.35 and the “L2 FC Butyricicoccus, 0.5 vs 0” value (jejunal microbiota; [4]) was -0.78. The “L2 FC Curtobacterium, 0.5 vs 0” value (jejunal microbiota; [4]) was -1.13, the “L2 FC Gordonibacter, 0.5 vs 0” value (jejunal microbiota; [4]) was -2.33 and the “Mean relative abundance (%) Butyricicoccus” value (jejunal microbiota; [5]) was 0.34%. The “Mean relative abundance (%) Curtobacterium” value (jejunal microbiota; [5]) was 0.03%, the “Mean relative abundance (%) Gordonibacter” value (jejunal microbiota; [5]) was 0.00% and the “Mean relative abundance of Bacillaceae” value (jejunal microbiota; [5]) was 0.04%. The “Mean relative abundance of Burkholderiaceae” value (jejunal microbiota; [5]) was 5.60%, the “Mean relative abundance of Peptostreptococcaceae” value (jejunal microbiota; [5]) was 0.52% and the “Mean relative abundance of Pseudomonadaceae” value (jejunal microbiota; [5]) was 0.35%. For the same molecule, the “Mean relative abundance of Ruminococcaceae” value (jejunal microbiota; [5]) was 4.52%, the “Mean relative abundance of uncultured bacterium family (Tenericutes, Mollicutes RF39)” value (jejunal microbiota; [5]) was 0.02% and the “L2FC of LinDA-normalized abundance of Bacillaceae” value (jejunal microbiota; 0.5 vs 0 g berberine/kg feed) was 1.43. For the same molecule, the “L2FC of LinDA-normalized abundance of Burkholderiaceae” value (jejunal microbiota; 0.5 vs 0 g berberine/kg feed) was 0.67, the “L2FC of LinDA-normalized abundance of Peptostreptococcaceae” value (jejunal microbiota; 0.5 vs 0 g berberine/kg feed) was -1.12 and the “L2FC of LinDA-normalized abundance of Pseudomonadaceae” value (jejunal microbiota; 0.5 vs 0 g berberine/kg feed) was 0.14. For the same molecule, the “L2FC of LinDA-normalized abundance of Ruminococcaceae” value (jejunal microbiota; 0.5 vs 0 g berberine/kg feed) was -0.14, the “L2FC of LinDA-normalized abundance of uncultured bacterium family (Tenericutes, Mollicutes RF39)” value (jejunal microbiota; 0.5 vs 0 g berberine/kg feed) was 0.60 and the “L2 FC Butyricicoccus, 1 vs 0” value (jejunal microbiota; [6]) was -0.38. For the same molecule, the “L2 FC Curtobacterium, 1 vs 0” value (jejunal microbiota; [6]) was -2.09, the “L2 FC Gordonibacter, 1 vs 0” value (jejunal microbiota; [6]) was -1.79 and the “Mean relative abundance (%) Butyricicoccus” value (jejunal microbiota; 1 g berberine/kg feed, 21 days) was 0.84%. For the same molecule, the “Mean relative abundance (%) Curtobacterium” value (jejunal microbiota; 1 g berberine/kg feed, 21 days) was 0.06%, the “Mean relative abundance (%) Gordonibacter” value (jejunal microbiota; 1 g berberine/kg feed, 21 days) was 0.02% and the “Mean relative abundance of Bacillaceae” value (jejunal microbiota; 1 g berberine/kg feed, 21 days) was 0.04%. For the same molecule, the “Mean relative abundance of Burkholderiaceae” value (jejunal microbiota; 1 g berberine/kg feed, 21 days) was 3.55%, the “Mean relative abundance of Peptostreptococcaceae” value (jejunal microbiota; 1 g berberine/kg feed, 21 days) was 0.26% and the “Mean relative abundance of Pseudomonadaceae” value (jejunal microbiota; 1 g berberine/kg feed, 21 days) was 0.35%. For the same molecule, the “Mean relative abundance of Ruminococcaceae” value (jejunal microbiota; 1 g berberine/kg feed, 21 days) was 10.54%, the “Mean relative abundance of uncultured bacterium family (Tenericutes, Mollicutes RF39)” value (jejunal microbiota; 1 g berberine/kg feed, 21 days) was 0.00% and the “L2FC of LinDA-normalized abundance of Bacillaceae” value (jejunal microbiota; 1 vs 0 g berberine/kg feed) was 0.80. The “L2FC of LinDA-normalized abundance of Burkholderiaceae” value (jejunal microbiota; 1 vs 0 g berberine/kg feed) was 1.37, the “L2FC of LinDA-normalized abundance of Peptostreptococcaceae” value (jejunal microbiota; 1 vs 0 g berberine/kg feed) was -3.21 and the “L2FC of LinDA-normalized abundance of Pseudomonadaceae” value (jejunal microbiota; 1 vs 0 g berberine/kg feed) was 1.01. For the same molecule, the “L2FC of LinDA-normalized abundance of Ruminococcaceae” value (jejunal microbiota; 1 vs 0 g berberine/kg feed) was 1.51, the “L2FC of LinDA-normalized abundance of uncultured bacterium family (Tenericutes, Mollicutes RF39)” value (jejunal microbiota; 1 vs 0 g berberine/kg feed) was 0.00 and the “Abundance of phylum Actinobacteria” value (jejunal microbiota; high dose (1 g/kg feed), p = 0.021) was “reduction”. For the same molecule, the “Abundance of phylum Actinobacteria” value (jejunal microbiota; low dose (0.1 g/kg feed), p < 0.001) was “reduction”, the Crypt depth (duodenum; 0.1 g berberine/kg feed) was 114 ± 21 µm and the Villus length (duodenum; 0.1 g berberine/kg feed) was 1,678 ± 101 µm. For the same molecule, the “Villus to crypt ratio” value (duodenum; 0.1 g berberine/kg feed) was 15.30 ± 2.50, the Crypt depth (duodenum; 0.5 g berberine/kg feed) was 104 ± 15 µm and the Villus length (duodenum; 0.5 g berberine/kg feed) was 1,815 ± 148 µm. The “Villus to crypt ratio” value (duodenum; 0.5 g berberine/kg feed) was 17.98 ± 2.53, the Crypt depth (duodenum; 1 g berberine/kg feed) was 103 ± 17 µm and the Villus length (duodenum; 1 g berberine/kg feed) was 1,820 ± 150 µm. The “Villus to crypt ratio” value (duodenum; 1 g berberine/kg feed) was 18.31 ± 3.21.
